According to patent US20220125844A1 (priority 2020, published 2022):

What was measured:
[1] = tested on: primary human natural killer (NK) cells; details: cited from earlier work
[2] = tested on: primary human NK cells (effector) with MV-4-11 target cells; assay: Primary human NK cell apoptosis assay, annexin V staining and flow cytometry; type: cell-based; details: clinically-relevant concentration, morphine 25 ng/mL, two-hour incubation of effector cells; data only in FIG. 1
[3] = tested on: CAR-NK cells (effector) with MV-4-11 target cells; assay: CAR-NK cell apoptosis assay, annexin V staining and flow cytometry; type: cell-based, human; details: clinically-relevant concentration, morphine 25 ng/mL, two-hour incubation of effector cells; data only in FIG. 1

Row | SMILES | primary human NK cell cytotoxicity after preincubation with opioid [1] | effect on primary human NK cell function (ability to induce apoptosis in MV-4-11 cells) [2] | effect on CAR-NK cell function (ability to induce apoptosis in MV-4-11 cells) [3]
1 | C[C@@H](NC(=O)[C@@H](N)Cc1ccc(O)cc1)C(=O)NCC(=O)N(C)[C@@H](Cc1ccccc1)C(=O)NCCO [DAMGO, [D-Ala2, N-Me-Phe4, Gly5-ol]-enkephalin] | reduced | – | –
2 | CN1CC[C@]23c4c5ccc(O)c4O[C@H]2[C@@H](O)C=C[C@H]3[C@H]1C5 [morphine] | reduced | functionally inhibited | functionally inhibited
3 | CCC(=O)C(CC(C)N(C)C)(c1ccccc1)c1ccccc1 (centres unmarked) [methadone] | reduced | – | –
